Assay results: patent US20160222014A1, “COMPOUNDS FOR REGULATING FAK AND/OR SRC PATHWAYS” (ASANA BIOSCIENCES, LLC, priority 2013, published 2016)

How the values were obtained:
JAK2 = JAK2 (Homo sapiens, UniProt O60674); experiment: JAK2 biochemical potency; conditions: read-out: JAK2 HTRF IC50
[1] = target: T1, FAK phosphorylated at Y397 in HEK-FAK cell line overexpressing human FL FAK protein (Homo sapiens, UniProt Q05397); experiment: Cell based assay, Phospho-FAK ELISA; conditions: HEK stb; read-out: pFAK EC50 (μM) HEK stb
T1 construct: expressed in transfected cells
From the text: D. Cell Based Assay-Phospho-FAK ELISA
The DuoSet IC ELISA (R&D systems—Cat no. DYC4528-5) provided the basic components required for the development of sandwich ELISAs to measure Focal Adhesion Kinase 1 (FAK) phosphorylated at Y397 in cell lysates. An immobilized capture antibody specific for FAK, also known as PTK2, binds both phosphorylated and unphosphorylated protein. After washing away unbound material, a biotinylated detection antibody specific for FAK phosphorylated at Y397 was used to detect only phosphorylated protein, utilizing a standard Streptavidin-HRP format. The cell line used for the assay was a stable HEK-FAK cell line overexpressing human FL FAK protein, which was generated as follows.
HEK293 cells (ATCC® CRL-1573™, 10801 University Boulevard, Manassas, Va. 20110 USA) were seeded in four 100 mm petri dishes at a seeding density of 1.5×10^6 cells per plate and incubated overnight at 37° C. in a 5% CO2 incubator. The transfection mix was prepared as follows. (A) 10 μg DNA (pCDNA4 V5/HisA vector containing Zeocin as mammalian selection marker, procured from Invitrogen) with the full length human FAK gene represented by the nucleotide sequence provided in NCBI Reference Sequence: NM_153831.3, SEQ ID NO: 1:
was added to 1.5 mL Opti-MEM® (reduced serum media is a modification of Eagle's Minimum Essential Media, buffered with HEPES and sodium bicarbonate and supplemented with hypoxanthine, thymidine, sodium pyruvate, L-glutamine, trace elements and growth factors commercially available from Invitrogen) and incubated at room temperature for 5 minutes. (B) 30 μL Lipofectamine™ Transfection reagent (Life Technologies) was added to 1.5 mL Opti-MEM® and incubated at room temperature for 5 minutes. Following this, (a) and (b) were mixed and incubated at room temperature for 20 minutes. Media was removed from cells and washed with 1× phosphate buffered saline (PBS) and the transfection mix prepared above was mixed with 3 mL of Opti-MEM®, added to the cells and incubated at 37° C. Four hours later, 6 mL of 20% Dulbecco's Modified Eagle Medium (DMEM) was added to the plates and incubated at 37° C. in a 5% CO2 incubator. Approximately 72 hours after transfection, cells were subcultured at various dilutions with fresh medium containing 0.8 mg/mL Zeocin™ (Life Technologies). Cells were replenished with selective medium every 3-4 days until cell foci were identified in the FAK transfected cells and most of the cells died in the control plates. Cells from these foci were grown in the presence of selective media and the expression of FAK was confirmed by Western Blotting. Over expression of FAK in the stably-transfected cells was quantified in the cell-based ELISA assay described below by determining the signal window, with a signal window of 2 or above considered to be robust). The HEK-FAK stable cell line thus was maintained in 0.8 mg/mL Zeocin™ (Life Technologies) and used in cell-based ELISA to assess autophosphorylation of FAK.
(i) Materials • 1. Phospho-FAK (Y397)-Capture Antibody • 2. Phospho-FAK (Y397)-Detection Antibody • 3. Streptavidin-HRP • 4. Cells used for the assay-HEK over expressing human FL FAK protein
(ii) Solutions • PBS—137 mM NaCl, 2.7 mM KCl, 8.1 mM Na2HPO4, 1.5 mM KH2PO4, pH 7.2-7.4, 0.2 μm filtered. • Wash Buffer—0.05% Tween20™ in PBS, pH 7.2-7.4 • Block Buffer—1% BSA, 0.05% NaN3, in PBS, pH 7.2-7.4. • IC Diluent #1-1% BSA in PBS, pH 7.2-7.4, 0.2 μm filtered. • IC Diluent #8-1 mM EDTA, 0.5% Triton™ X-100, 5 mM NaF in PBS, pH 7.2-7.4. IC Diluent #8 was also the base buffer for IC Diluent #3, IC Diluent #7, and Lysis. • Buffer #6. […]

recombinant human FAK1 = target: T2, recombinant human FAK1 (Homo sapiens, UniProt Q05397); experiment: FAK1 HTRF assay; assay type: biochemical
T2 construct: fused on or other part: N-terminal 6xHis tag
Summary of the method: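 His-tagged human FAK1 (residues 692–end, Sf9-expressed), 10 nM final, with 0.5 μM biotinylated gastrin-precursor Tyr87 peptide and a 10 μM final reagent in pH 7.4 buffer, 45 min at rt. Detection used Eu anti-pTyr antibody plus SA-APC (665/620 nm). Compounds top concentration 10 μM; IC50 from % inhibition.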

Recombinant Src enzyme = target: T3, Recombinant Src enzyme (Homo sapiens, UniProt P12931); experiment: Src HTRF assay; assay type: biochemical
T3 construct: purchased Millipore 14-326; host or cells: Sf21 insect cells
Summary of the method: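 Sf21-expressed recombinant Src at 5 nM final with biotinylated N-terminally tagged Tyk2 peptide substrate at 0.5 μM final; a component freshly made in enzyme assay buffer pH7.4 was used at 10 μM final. Buffer, supplements, compound handling and procedure as in the FAK HTRF assay; dasatinib included.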

AURKB (Aurora B) enzyme = target: T4, AURKB (Aurora B) enzyme (Homo sapiens, UniProt Q96GD4); experiment: Aurora B HTRF assay; assay type: biochemical; conditions: read-out: AuroraB IC50
T4 construct: purchased Invitrogen PVR 130
Summary of the method: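 HTRF kinase assay with 5 nM Aurora B and 50 nM ULight-PLK (Ser137) peptide, with a reagent at 30 μM final; 1 h at rt. Reaction stopped with EDTA, and phospho-peptide detected with 2 nM Eu-anti-P-PLK(Ser137) antibody after 1 h at rt, read as HTRF.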

T3 sequence (P12931 whole entry): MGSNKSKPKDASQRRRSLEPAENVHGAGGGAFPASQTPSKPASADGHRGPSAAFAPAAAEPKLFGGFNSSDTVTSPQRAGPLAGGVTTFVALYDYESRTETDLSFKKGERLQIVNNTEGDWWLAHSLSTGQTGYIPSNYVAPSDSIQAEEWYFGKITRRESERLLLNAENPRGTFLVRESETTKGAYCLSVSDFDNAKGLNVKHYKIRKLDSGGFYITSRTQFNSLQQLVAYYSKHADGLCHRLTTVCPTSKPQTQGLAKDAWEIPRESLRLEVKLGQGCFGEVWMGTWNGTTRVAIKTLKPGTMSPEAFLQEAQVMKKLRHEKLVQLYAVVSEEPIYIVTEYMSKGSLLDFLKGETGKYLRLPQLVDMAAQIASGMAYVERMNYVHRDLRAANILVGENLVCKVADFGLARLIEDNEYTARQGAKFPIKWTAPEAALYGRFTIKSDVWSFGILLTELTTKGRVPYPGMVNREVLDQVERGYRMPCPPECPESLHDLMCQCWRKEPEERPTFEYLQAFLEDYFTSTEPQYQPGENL
T4 sequence (Q96GD4 whole entry): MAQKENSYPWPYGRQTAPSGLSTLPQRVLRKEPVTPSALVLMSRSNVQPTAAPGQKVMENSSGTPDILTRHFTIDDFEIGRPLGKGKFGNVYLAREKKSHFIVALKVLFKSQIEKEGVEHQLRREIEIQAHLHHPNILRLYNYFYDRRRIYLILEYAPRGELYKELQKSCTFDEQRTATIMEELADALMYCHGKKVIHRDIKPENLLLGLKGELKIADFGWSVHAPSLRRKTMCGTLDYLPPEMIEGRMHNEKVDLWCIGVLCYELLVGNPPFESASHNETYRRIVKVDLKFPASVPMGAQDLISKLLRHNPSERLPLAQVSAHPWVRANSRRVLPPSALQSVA
T1 sequence (Q05397 whole entry): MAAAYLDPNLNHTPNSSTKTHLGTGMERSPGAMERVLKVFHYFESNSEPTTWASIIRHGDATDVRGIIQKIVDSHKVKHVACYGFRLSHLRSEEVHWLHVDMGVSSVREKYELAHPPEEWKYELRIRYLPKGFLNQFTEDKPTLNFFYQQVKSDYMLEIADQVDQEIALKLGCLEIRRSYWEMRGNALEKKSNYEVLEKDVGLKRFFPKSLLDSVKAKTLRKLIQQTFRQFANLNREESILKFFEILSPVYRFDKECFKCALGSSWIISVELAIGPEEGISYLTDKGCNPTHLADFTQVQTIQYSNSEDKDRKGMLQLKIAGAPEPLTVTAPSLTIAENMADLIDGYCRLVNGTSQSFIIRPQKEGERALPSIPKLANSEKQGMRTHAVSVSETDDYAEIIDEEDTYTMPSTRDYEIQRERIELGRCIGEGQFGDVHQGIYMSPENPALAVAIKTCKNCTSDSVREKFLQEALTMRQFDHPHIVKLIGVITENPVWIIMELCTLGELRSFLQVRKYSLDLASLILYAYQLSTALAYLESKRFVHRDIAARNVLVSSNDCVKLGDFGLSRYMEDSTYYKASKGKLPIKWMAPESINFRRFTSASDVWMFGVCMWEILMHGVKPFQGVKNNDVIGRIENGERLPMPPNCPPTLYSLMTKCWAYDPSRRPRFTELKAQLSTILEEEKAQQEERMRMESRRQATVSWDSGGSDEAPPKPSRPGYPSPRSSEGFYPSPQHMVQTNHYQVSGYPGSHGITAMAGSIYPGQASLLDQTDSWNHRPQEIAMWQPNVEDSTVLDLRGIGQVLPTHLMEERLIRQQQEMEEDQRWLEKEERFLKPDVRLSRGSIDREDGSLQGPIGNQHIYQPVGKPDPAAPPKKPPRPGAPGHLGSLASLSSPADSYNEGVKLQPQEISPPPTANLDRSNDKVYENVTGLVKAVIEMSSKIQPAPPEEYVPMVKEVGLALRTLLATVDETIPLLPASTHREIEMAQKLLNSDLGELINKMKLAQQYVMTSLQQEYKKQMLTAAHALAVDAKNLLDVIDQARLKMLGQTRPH
T2 sequence (Q05397 422-680 limits assumed): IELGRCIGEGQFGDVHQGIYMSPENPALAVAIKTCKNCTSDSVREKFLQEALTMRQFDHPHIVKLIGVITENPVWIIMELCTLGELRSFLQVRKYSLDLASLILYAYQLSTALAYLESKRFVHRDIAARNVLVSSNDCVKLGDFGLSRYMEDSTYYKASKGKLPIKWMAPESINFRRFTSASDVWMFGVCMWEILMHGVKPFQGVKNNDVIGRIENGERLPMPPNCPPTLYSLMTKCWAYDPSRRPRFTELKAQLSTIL
Sequence of JAK2 (O60674 whole entry, species assumed): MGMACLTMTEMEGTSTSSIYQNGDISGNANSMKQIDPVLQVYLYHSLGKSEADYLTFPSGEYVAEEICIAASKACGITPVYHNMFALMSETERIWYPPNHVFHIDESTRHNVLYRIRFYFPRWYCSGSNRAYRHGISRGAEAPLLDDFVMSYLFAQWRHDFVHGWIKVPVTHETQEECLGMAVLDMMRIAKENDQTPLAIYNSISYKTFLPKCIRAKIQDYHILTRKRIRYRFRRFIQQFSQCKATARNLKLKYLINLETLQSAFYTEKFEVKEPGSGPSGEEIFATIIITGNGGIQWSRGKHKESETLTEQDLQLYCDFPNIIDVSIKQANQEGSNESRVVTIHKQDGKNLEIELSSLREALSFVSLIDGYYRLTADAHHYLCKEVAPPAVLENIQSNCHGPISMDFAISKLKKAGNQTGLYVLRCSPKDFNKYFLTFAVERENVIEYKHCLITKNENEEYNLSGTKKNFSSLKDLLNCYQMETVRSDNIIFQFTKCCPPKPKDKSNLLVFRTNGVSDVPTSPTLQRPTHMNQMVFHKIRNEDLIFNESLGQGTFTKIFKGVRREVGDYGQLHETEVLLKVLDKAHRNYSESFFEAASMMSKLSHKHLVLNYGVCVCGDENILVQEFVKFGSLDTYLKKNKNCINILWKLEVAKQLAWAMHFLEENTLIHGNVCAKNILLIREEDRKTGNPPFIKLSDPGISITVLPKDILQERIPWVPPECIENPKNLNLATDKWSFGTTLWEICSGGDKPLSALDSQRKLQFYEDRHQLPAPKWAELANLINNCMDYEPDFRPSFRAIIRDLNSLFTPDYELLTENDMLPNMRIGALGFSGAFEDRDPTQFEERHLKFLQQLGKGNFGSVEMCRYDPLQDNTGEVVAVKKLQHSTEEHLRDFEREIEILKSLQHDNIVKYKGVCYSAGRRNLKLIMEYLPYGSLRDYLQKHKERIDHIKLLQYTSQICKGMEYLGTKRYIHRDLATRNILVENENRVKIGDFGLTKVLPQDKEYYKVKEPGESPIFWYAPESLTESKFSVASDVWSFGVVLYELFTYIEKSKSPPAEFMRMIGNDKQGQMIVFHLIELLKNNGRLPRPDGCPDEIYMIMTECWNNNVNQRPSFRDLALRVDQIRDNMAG

| SMILES | IC50 (JAK2) | EC50 [1] | IC50 (recombinant human FAK1) | IC50 (Recombinant Src enzyme) | IC50 (AURKB (Aurora B) enzyme) |
| --- | --- | --- | --- | --- | --- |
| CC(=O)Nc1ccc(Nc2ncc3ccn(Cc4ccccc4OC(F)F)c3n2)cc1 [Example 95] | < 20 nM | – | – | – | – |
| CN1CCN(c2ccc(Nc3ncc4ccn(Cc5cccnc5N(C)S(C)(=O)=O)c4n3)cc2)CC1 [Example 101] | < 20 nM | – | – | – | – |
| CN(c1ncccc1Cn1ccc2cnc(Nc3ccc4[nH]cc(C5=CCNCC5)c4c3)nc21)S(C)(=O)=O [Example 152] | – | > 1 µM | < 20 nM | > 1000 nM | – |
| Cc1cc(Nc2ncc3ccn(S(=O)(=O)c4cccs4)c3n2)ccc1N1CCNCC1 [Example 229] | – | > 1 µM | – | < 20 nM | – |
| N#Cc1ccccc1S(=O)(=O)n1ccc2cnc(Nc3ccc(N4CCNCC4)c(F)c3)nc21 [Example 245] | – | > 1 µM | – | < 20 nM | < 20 nM |
| COc1ccccc1S(=O)(=O)n1ncc2cnc(Nc3ccc(N4CCNCC4)cc3)cc21 [Example 342] | – | > 1 µM | – | > 1000 nM | < 20 nM |
| Cc1ccc2cccc(S(=O)(=O)n3ccc4cnc(Nc5ccc(N6CCNCC6)cc5)cc43)c2n1 [Example 369] | – | > 1 µM | – | > 1000 nM | < 20 nM |
| CN(c1ncccc1Cn1ccc2cnc(Nc3ccc(N4CC5CC4CN5)cc3)cc21)S(C)(=O)=O (stereo not shown) [Example 371] | – | > 1 µM | – | > 1000 nM | – |
| COc1cc(N2CCN(CCO)CC2)ccc1Nc1cc2c(ccn2S(=O)(=O)c2cccc3cccnc23)cn1 [Example 386] | – | < 0.02 µM | < 20 nM | > 1000 nM | – |
| COc1cc(N2CCN(CCO)CC2)ccc1Nc1cc2c(cn1)cnn2S(=O)(=O)c1cccc2cccnc12 [Example 387] | – | < 0.02 µM | < 20 nM | > 1000 nM | – |
| Cc1ccnc2c(S(=O)(=O)n3ccc4cnc(Nc5ccc(N6CCNCC6)cc5)nc43)cccc12 [Example 398] | – | > 1 µM | – | > 1000 nM | < 20 nM |
| COc1cc(N2CCC(O)CC2)ccc1Nc1cc2c(ccn2S(=O)(=O)c2cccc3cccnc23)cn1 [Example 400] | – | < 0.02 µM | < 20 nM | > 1000 nM | – |
| N#Cc1ccccc1S(=O)(=O)n1ncc2cnc(Nc3ccc(N4CCN(CCO)CC4)cc3)cc21 [Example 419] | – | > 1 µM | – | > 1000 nM | – |
| COc1cc(N2CCN(CCOC(C)=O)CC2)ccc1Nc1cc2c(ccn2S(=O)(=O)c2cccc3cccnc23)cn1 [Example 451] | – | < 0.02 µM | < 20 nM | > 1000 nM | – |
| CN(c1ncccc1CN1c2nc(Nc3ccc(N4CCNCC4)cc3)ncc2C(C)(C)C1O)S(C)(=O)=O (stereo not shown) [Example 455] | – | > 1 µM | – | > 1000 nM | – |
| N#Cc1ccccc1S(=O)(=O)n1ccc2cnc(Nc3ccc4c(c3)CC(=O)N4)cc21 [Example 514] | – | > 1 µM | < 20 nM | > 1000 nM | – |
| CS(=O)(=O)Nc1ccccc1Cn1ccc2cnc(Nc3ccc(N4CCNCC4)cc3)nc21 [Example 519] | – | > 1 µM | – | < 20 nM | – |
| CN(C)C1CN(c2ccc(Nc3cc4c(ccn4S(=O)(=O)c4ccccc4C#N)cn3)cc2)C1 [Example 623] | – | > 1 µM | – | > 1000 nM | – |
| CN(C)C1CCN(c2ccc(Nc3ncc4c(n3)N(S(=O)(=O)c3cccc5ccccc35)CC4(C)C)cc2)CC1 [Example 755] | – | > 1 µM | – | > 1000 nM | – |

Continued, values first:

| IC50 (JAK2) | EC50 [1] | IC50 (recombinant human FAK1) | IC50 (Recombinant Src enzyme) | IC50 (AURKB (Aurora B) enzyme) | SMILES |
| --- | --- | --- | --- | --- | --- |
| < 20 nM | – | – | – | – | CN(c1ncccc1Cn1ccc2cnc(Nc3cccc(N4CCOCC4)c3)nc21)S(C)(=O)=O [Example 99] |
| – | > 1 µM | < 20 nM | < 20 nM | – | CN(c1ncccc1Cn1ccc2cnc(Nc3ccc4c(c3)NCCO4)nc21)S(C)(=O)=O [Example 215] |
| – | > 1 µM | – | < 20 nM | < 20 nM | O=S(=O)(c1ccccc1Cl)n1ccc2cnc(Nc3ccc(N4CCNCC4)cc3)nc21 [Example 232] |
| – | < 0.02 µM | < 20 nM | – | < 20 nM | O=S(=O)(c1cccc2cccnc12)n1ccc2cnc(Nc3ccc(CN4CCCC(CO)C4)cc3)nc21 (stereo not shown) [Example 247] |
| – | > 1 µM | – | > 1000 nM | – | Cn1cc(Nc2cc3c(cn2)cnn3S(=O)(=O)c2cccc3cccnc23)cn1 [Example 349] |
| – | > 1 µM | – | > 1000 nM | – | COc1cc(N2CCNCC2)ccc1Nc1ncc2ccn(S(=O)(=O)c3cccc4ccc(C)nc34)c2n1 [Example 365] |
| – | > 1 µM | – | > 1000 nM | – | CN(c1ncccc1Cn1ccc2cnc(Nc3ccc(N4CCOCC4)cc3)cc21)S(C)(=O)=O [Example 397] |
| – | < 0.02 µM | < 20 nM | > 1000 nM | – | COCCN1CCN(c2ccc(Nc3cc4c(ccn4S(=O)(=O)c4cccc5cccnc45)cn3)c(OC)c2)CC1 [Example 444] |
| < 20 nM | – | – | – | – | C[C@H]1CN(c2ccc(Nc3ncc4ccn(Cc5cccnc5N(C)S(C)(=O)=O)c4n3)cc2)CCN1 [Example 471, N-Methyl-N-(3-{2-[4-((S)-3-methyl-piperazin-1-yl)-phenylamino]-pyrrolo[2,3-d]pyrimidin-7-ylmethyl}-pyridin-2-yl)-methanesulfonamide] |
| – | > 1 µM | – | > 1000 nM | – | COc1cc(C(=O)N2CCOCC2)c(F)cc1Nc1ncc2ccn(Cc3ccccc3N(C)S(C)(=O)=O)c2n1 [Example 512] |
| – | > 1 µM | – | < 20 nM | < 20 nM | C[C@@H]1CN(c2ccc(Nc3ncc4ccn(Cc5ccccc5NS(C)(=O)=O)c4n3)cc2)CCN1 [Example 547] |
| – | > 1 µM | < 20 nM | – | < 20 nM | CN(c1ccccc1Cn1ccc2cnc(Nc3ccc(N4CCNCC4=O)cc3)nc21)S(C)(=O)=O [Example 550] |
| – | > 1 µM | – | > 1000 nM | – | CN(c1ccccc1Cn1ccc2cnc(Nc3ccc(-n4ccccc4=O)cc3)nc21)S(C)(=O)=O [Example 576] |
| – | > 1 µM | – | > 1000 nM | – | CC1(C)CN(S(=O)(=O)c2cccc3cccnc23)c2nc(Nc3ccc(N4CCN(CC(=O)O)CC4)cc3)ncc21 [Example 699] |
| – | > 1 µM | – | > 1000 nM | – | COc1cccc(N(C)S(C)(=O)=O)c1Cn1ccc2cnc(Nc3ccc(N4CCN[C@@H](C)C4)cc3)nc21 [Example 701] |
| – | > 1 µM | – | > 1000 nM | – | CNC1CCN(c2ccc(Nc3ncc4c(n3)N(S(=O)(=O)c3cccc5ccccc35)CC4(C)C)cc2)CC1 [Example 707] |
| – | > 1 µM | – | > 1000 nM | > 1000 nM | CC1(C)CN(c2ccccn2)c2nc(Nc3ccc4c(c3)CC(=O)N4)ncc21 [Example 740] |
